Assay results reported in ChEMBL document CHEMBL1201862, “PubChem BioAssay data set” (2004).
Active and inactive are the calls of the source.

Experiments:
HEK293 [1] = test: inhibition of NOD1-driven NF-kB reporter – cell-based, luminescence, uHTS, primary screen (AID 1578); format: functional; details: Homo sapiens
HEK293 [2] = test: cells; format: functional, cell-based; details: Homo sapiens
HEK293 [3] = test: cells; format: functional, cell-based; details: Homo sapiens; remark: listed apart in the source
HEK293 [4] = test: NOD2 signaling inhibitors in MDP-stimulated cells, cell-based, uHTS, luminescence (AID 2001); format: functional; details: Homo sapiens
NS3 = NS3 (Hepatitis C virus, UniProt A3EZJ3); test: PubChem AID 2173; parameters: species or system Hepacivirus hominis
NS3, sequence (A3EZJ3 whole entry): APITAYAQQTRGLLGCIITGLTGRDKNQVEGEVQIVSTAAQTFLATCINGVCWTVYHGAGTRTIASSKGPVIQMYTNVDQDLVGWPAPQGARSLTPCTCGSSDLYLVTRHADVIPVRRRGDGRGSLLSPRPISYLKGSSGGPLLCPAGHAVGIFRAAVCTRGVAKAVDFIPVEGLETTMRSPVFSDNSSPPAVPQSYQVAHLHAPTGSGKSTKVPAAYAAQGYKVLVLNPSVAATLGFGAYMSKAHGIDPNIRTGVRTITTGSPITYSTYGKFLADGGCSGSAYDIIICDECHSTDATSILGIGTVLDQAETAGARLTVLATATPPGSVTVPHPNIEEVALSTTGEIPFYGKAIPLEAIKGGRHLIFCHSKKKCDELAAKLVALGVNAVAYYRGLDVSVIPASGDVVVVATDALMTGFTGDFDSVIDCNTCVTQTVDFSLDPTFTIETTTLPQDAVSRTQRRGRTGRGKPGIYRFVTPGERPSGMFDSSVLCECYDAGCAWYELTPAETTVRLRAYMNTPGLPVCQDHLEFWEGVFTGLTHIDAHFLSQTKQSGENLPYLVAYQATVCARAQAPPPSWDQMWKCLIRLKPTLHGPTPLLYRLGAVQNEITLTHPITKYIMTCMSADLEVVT

[5] = molecular target: Glyceraldehyde-3-phosphate dehydrogenase (Homo sapiens, UniProt P04406)
Glyceraldehyde-3-phosphate dehydrogenase, sequence (P04406 whole entry): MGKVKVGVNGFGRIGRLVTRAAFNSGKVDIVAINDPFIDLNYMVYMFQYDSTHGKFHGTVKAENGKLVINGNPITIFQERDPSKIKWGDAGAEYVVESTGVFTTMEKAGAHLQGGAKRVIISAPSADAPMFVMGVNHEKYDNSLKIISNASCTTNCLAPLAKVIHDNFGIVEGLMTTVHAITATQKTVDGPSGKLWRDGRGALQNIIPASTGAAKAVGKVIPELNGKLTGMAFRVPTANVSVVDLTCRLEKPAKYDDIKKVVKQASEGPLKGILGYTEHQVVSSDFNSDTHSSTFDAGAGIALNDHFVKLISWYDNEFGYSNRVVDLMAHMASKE

Bcl-2-related protein A1 [6] = molecular target: T1, Bcl-2-related protein A1 (Mus musculus, UniProt Q07440); test: small-molecule antagonists of Bfl-1/BH3 interaction – biochemical, TR-FRET, mouse Bfl-1, confirmation (AID 621);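 note: TR-FRET binding of GST-Bfl-1 to FITC-labelled Bid peptide via terbium antibody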
T1 sequence (Q07440 whole entry): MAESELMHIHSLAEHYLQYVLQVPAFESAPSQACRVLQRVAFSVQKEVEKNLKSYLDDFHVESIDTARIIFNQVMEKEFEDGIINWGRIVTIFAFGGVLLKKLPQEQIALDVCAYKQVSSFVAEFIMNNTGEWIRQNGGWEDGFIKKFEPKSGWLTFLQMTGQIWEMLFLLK

Bcl-2-related protein A1 [7] = molecular target: T1, Bcl-2-related protein A1; test: Bfl-1 binding inhibitors, SAR follow-up, biochemical, fluorescence polarization (AID 1070)
[8] = molecular target: T2, Short transient receptor potential channel 4 (Mus musculus, UniProt Q9QUQ5); test: calcium entry via TRPC4 opening agents – cell-based, HEK293 TRPC4/mu-opioid, Fluo-4 calcium, dose response (AID 434937); format: functional
T2 sequence (Q9QUQ5 whole entry): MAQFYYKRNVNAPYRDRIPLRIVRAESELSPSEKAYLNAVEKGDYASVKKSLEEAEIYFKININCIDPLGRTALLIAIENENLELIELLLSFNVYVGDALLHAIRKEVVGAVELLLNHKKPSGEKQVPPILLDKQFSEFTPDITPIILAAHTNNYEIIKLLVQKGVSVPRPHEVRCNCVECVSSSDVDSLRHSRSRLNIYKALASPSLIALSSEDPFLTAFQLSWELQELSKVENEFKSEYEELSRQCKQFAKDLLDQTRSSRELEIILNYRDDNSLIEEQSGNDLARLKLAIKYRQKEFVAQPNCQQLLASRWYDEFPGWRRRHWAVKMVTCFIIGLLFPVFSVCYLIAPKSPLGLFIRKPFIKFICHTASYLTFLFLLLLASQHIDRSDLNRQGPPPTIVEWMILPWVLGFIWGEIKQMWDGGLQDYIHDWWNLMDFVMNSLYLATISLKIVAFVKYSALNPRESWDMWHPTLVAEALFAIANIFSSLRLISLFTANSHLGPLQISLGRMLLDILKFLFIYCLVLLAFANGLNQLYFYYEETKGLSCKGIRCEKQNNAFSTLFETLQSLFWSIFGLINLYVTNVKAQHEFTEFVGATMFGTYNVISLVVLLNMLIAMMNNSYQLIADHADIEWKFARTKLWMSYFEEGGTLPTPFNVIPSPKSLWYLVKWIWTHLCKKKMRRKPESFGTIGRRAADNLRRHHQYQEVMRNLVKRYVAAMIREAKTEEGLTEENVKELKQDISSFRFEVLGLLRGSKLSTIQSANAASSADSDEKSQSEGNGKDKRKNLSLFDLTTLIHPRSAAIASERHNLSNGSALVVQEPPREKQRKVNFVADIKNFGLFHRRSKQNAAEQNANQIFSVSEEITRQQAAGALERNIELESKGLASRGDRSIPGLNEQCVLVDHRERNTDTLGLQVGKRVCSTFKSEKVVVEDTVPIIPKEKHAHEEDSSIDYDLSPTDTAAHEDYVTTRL

[9] = molecular target: G-protein coupled receptor 55 (Homo sapiens, UniProt Q9Y2T6); test: inhibition of LPI-stimulated GPR55 beta-arrestin translocation – imaging, U2OS, beta-arrestin-GFP, LPI agonist, primary screen (AID 2013); format: functional;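 note: antagonist potency measured as reduced agonist-driven arrestin aggregation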
G-protein coupled receptor 55, sequence (Q9Y2T6 whole entry): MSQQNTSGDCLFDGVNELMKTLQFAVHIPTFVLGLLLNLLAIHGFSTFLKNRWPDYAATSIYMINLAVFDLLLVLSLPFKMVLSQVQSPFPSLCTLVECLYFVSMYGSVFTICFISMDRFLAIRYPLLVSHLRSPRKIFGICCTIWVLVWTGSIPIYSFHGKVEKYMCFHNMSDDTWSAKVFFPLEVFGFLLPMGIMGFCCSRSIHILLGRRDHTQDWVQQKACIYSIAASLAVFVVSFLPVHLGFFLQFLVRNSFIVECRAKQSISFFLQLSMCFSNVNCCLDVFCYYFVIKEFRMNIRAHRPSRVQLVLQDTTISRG

[10] = Luminescence Cell-Based Dose Retest to Confirm Inhibitors of Cancer Stem Cells. [Related pubchem assays (depositor defined):AID2717, AID2721]; format: functional; details: Homo sapiens
Estrogen receptor = molecular target: T3, Estrogen receptor (Homo sapiens, UniProt P03372);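 note: potency for inhibiting coactivator peptide recruitment to the receptor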
T3 sequence (P03372 whole entry): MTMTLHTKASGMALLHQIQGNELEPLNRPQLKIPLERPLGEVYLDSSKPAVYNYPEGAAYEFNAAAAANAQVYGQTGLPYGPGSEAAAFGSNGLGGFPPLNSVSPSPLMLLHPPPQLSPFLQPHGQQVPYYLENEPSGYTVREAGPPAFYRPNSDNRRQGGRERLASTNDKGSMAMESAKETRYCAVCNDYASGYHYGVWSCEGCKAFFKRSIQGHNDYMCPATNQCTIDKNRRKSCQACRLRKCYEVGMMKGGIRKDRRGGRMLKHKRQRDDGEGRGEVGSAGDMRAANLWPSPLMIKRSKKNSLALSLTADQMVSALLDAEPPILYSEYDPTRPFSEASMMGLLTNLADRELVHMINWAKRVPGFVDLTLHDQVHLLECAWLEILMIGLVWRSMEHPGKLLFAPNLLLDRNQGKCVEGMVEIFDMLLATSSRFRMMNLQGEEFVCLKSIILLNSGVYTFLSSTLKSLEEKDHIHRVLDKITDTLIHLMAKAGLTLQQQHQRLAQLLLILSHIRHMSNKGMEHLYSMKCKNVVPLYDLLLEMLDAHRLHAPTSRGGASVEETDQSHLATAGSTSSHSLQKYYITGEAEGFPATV

[11] = molecular target: T4, Carboxy-terminal domain RNA polymerase II polypeptide A small phosphatase 1 (Homo sapiens, UniProt Q9GZU7); test: CTDSP1 inhibitors, concentration-response, biochemical, absorbance readout, ultra-high-throughput screen actives (AID 540297); format: functional
T4 sequence (Q9GZU7 whole entry): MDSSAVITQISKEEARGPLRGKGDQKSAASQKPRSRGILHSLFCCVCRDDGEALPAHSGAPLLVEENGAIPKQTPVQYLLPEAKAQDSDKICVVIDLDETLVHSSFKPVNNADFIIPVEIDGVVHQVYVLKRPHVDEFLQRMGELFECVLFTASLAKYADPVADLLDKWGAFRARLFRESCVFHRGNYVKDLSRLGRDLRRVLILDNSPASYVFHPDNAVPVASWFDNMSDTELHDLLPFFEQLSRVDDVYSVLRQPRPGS

Vero [12] = test: cells; format: functional, cell-based; details: Chlorocebus sabaeus
Vero [13] = test: cells; format: functional; details: Chlorocebus sabaeus
Escherichia coli = test: microbe, parasite or virus in culture
Estrogen receptor beta = Estrogen receptor beta (Homo sapiens, UniProt Q92731); test: blockers of SRC-3 recruitment to ERβ – biochemical, ELISA, streptavidin-HRP readout, orthogonal assay, confirmation (AID 1060)
Estrogen receptor beta, sequence (Q92731 whole entry): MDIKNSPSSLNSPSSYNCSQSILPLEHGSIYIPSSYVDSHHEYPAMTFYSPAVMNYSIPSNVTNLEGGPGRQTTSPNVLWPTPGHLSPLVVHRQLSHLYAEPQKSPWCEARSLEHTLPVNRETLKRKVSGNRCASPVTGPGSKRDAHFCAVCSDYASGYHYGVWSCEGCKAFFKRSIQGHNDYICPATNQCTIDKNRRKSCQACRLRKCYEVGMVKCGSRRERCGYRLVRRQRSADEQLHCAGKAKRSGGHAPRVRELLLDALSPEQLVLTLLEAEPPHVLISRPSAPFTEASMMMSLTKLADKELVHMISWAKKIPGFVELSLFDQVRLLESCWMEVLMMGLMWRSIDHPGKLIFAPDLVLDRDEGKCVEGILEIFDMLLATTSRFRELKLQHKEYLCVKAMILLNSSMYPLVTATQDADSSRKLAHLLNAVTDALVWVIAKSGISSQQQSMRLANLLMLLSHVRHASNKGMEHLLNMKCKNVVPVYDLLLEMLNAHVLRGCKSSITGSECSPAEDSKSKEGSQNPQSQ

[14] = decrease of insulin promoter-GFP reporter – imaging, high-content screening, mouse beta cells (AID 1628); format: functional; details: MIN6
[15] = test system: Streptococcus sp. 'group A'; test: Streptococcus pyogenes SK(-)GAS viability under kanamycin – luminescence, BacTiterGlo, confirmation, counter-screen for streptokinase expression inhibitor project, dose response (AID 1900); format: functional, organism-based
[16] = MIN6 cell viability loss – mouse insulinoma, cytotoxicity control, dose response (AID 2122); format: functional;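 note: confirmatory high-throughput counterscreen run to flag cytotoxic compounds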
Streptokinase A = molecular target: T5, Streptokinase A (Streptococcus pyogenes serotype M1, UniProt P10520); test: viability-normalized secreted streptokinase activity reduction – plasminogen activation absorbance, OD405, dose response (AID 1914); format: functional, Streptococcus pyogenes M1 GAS;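 note: secreted streptokinase activity via plasminogen activation per viability signal from cell pellet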
T5 sequence (P10520 whole entry): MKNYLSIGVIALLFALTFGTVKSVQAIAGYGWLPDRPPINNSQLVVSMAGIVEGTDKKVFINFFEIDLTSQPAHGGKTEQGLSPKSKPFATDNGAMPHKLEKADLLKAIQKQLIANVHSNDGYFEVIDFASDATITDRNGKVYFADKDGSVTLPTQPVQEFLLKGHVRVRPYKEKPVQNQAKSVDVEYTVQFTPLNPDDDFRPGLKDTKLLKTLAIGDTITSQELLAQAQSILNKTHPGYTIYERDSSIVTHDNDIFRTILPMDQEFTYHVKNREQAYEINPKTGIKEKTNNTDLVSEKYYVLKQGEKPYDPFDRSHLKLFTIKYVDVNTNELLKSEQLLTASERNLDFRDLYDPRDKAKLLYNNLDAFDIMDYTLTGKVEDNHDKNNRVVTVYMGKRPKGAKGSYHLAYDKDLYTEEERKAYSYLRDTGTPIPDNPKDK

Streptococcus = test: GAS UMAA2166 growth inhibition – luminescence, BacTiterGlo, counter-screen for streptokinase expression inhibitor project, dose response (AID 1915); format: functional, organism-based;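 note: potency for reduction of bacterial viability or growth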

Question: What does the source list for `Cc1noc2ncnc(N3CCN(c4cccc(Cl)c4)CC3)c12`?
Answer: EC50 (HEK293 [1]): 10.4 µM (active); IC50 (HEK293 [2]): 8.79 µM (active); IC50 (HEK293 [3]): > 20 µM (inactive); IC50 (HEK293 [4]): 10.3 µM (inactive)

Question: For `Cc1cccc(N2C(=O)C(O)=C(C(=O)c3cccs3)C2c2cccc(Oc3ccccc3)c2)n1` (stereo not drawn), which IC50 (NS3) is on record?
Answer: 3.02 µM (active)

Question: With `O=C1C(Cl)=C(N2CCN(CCNCc3ccccn3)CC2)C(=O)N1c1ccc(Cl)c(Cl)c1` as the molecule, how does the IC50 [5] read?
Answer: > 100 µM (not active)

Question: And the IC50 (Bcl-2-related protein A1 [6])?
Answer: 8.14 µM (active)

Question: What about the IC50 (Bcl-2-related protein A1 [7]) of the same molecule?
Answer: 16.3 µM (active)

Question: Which EC50 [8] does the source give for `Cc1cc(OCCCn2ccnc2)ccc1[N+](=O)[O-]` here?
Answer: 4.73 µM (active)

Question: Which EC50 [8] does the source give for `COc1ccc(C(CNC(=O)Cc2ccc(-c3ccccc3)cc2)N(C)C)cc1` (stereo not drawn) here?
Answer: 0.267 µM (active)

Question: For `CC(C)N(C(=O)CSc1nc2ccccc2n1-c1ccccc1)C(C)C`, which IC50 [9] is on record?
Answer: 3.82 µM (active)

Question: What about the AC50 [10] of the same molecule?
Answer: 5.12 µM (active)

Question: Which IC50 (Estrogen receptor) does the source give for `O=C(CSc1nc(-c2ccc(F)cc2)cs1)NC(=O)NCc1ccco1` here?
Answer: > 50 µM (not active)

Question: And the IC50 [11]?
Answer: 18.8 µM (active)

Question: With `O=C1C(Cl)=C(Cl)C(=O)N1c1cccc([N+](=O)[O-])c1` as the molecule, how does the IC50 [5] read?
Answer: > 100 µM (not active)

Question: What about the IC50 (Bcl-2-related protein A1 [6]) of the same molecule?
Answer: 16.4 µM (active)

Question: And the IC50 (Bcl-2-related protein A1 [7])?
Answer: 11.9 µM (active)

Question: Which IC50 (Vero [12]) does the source give for `Cc1cc2cc(CN(CCN(C)C)C(S)=NCc3ccco3)c(O)nc2cc1C` here?
Answer: 10.4 µM (active)

Question: What about the CC50 (Vero [13]) of the same molecule?
Answer: > 25 µM (active)

Question: Which AC50 (Escherichia coli) does the source give for `C=CCN1C(=O)c2ccc(C(=O)N3CCC(C(N)=O)CC3)cc2C1=O` here?
Answer: 57.7 µM (active)

Question: For `OCCC1CN(Cc2cccn2-c2nccs2)CCN1CCc1ccccc1` (stereo not drawn), which IC50 (cells) is on record?
Answer: 30.3 µM (active)

Question: With `N#Cc1c(NC(=O)CN2CCN(c3ccccc3)CC2)sc2c1CCC2` as the molecule, how does the IC50 (Estrogen receptor beta) read?
Answer: 44.5 µM (not active)

Question: For `Brc1ccc2[nH]c3c(N4CCc5ccccc5C4)ncnc3c2c1`, which IC50 [14] is on record?
Answer: 1.43 µM (active)

Question: What about the EC50 [15] of the same molecule?
Answer: 5.55 µM (active)

Question: And the IC50 [16]?
Answer: 1.28 µM (active)

Question: And the EC50 (Streptokinase A)?
Answer: 10.9 µM (active)

Question: And the EC50 (Streptococcus)?
Answer: > 150 µM (not active)

Question: And the AC50 [10]?
Answer: 20.4 µM (active)
